Molecular target: T1, EGFR (Homo sapiens, UniProt P00533)
T1 construct: endogenous in cells; host or cells: A431 cells (lysate, captured with SUMO1 anti-EGFR antibody)
Assay: Biochemical EGFR Assay
Parameters: concentration or dose not given beside the values
Summary of the method: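 Readout is ABTS absorbance at 410 nm after anti-phosphotyrosine and HRP-antibody detection of EGFR autophosphorylation. The kinase was immunocaptured from A431 lysate, exposed 30 min to test compound diluted 1:10 in TBS, then phosphorylated for 5 min with ATP/MnCl2 before an EDTA stop.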

T1 sequence (P00533 25-1210): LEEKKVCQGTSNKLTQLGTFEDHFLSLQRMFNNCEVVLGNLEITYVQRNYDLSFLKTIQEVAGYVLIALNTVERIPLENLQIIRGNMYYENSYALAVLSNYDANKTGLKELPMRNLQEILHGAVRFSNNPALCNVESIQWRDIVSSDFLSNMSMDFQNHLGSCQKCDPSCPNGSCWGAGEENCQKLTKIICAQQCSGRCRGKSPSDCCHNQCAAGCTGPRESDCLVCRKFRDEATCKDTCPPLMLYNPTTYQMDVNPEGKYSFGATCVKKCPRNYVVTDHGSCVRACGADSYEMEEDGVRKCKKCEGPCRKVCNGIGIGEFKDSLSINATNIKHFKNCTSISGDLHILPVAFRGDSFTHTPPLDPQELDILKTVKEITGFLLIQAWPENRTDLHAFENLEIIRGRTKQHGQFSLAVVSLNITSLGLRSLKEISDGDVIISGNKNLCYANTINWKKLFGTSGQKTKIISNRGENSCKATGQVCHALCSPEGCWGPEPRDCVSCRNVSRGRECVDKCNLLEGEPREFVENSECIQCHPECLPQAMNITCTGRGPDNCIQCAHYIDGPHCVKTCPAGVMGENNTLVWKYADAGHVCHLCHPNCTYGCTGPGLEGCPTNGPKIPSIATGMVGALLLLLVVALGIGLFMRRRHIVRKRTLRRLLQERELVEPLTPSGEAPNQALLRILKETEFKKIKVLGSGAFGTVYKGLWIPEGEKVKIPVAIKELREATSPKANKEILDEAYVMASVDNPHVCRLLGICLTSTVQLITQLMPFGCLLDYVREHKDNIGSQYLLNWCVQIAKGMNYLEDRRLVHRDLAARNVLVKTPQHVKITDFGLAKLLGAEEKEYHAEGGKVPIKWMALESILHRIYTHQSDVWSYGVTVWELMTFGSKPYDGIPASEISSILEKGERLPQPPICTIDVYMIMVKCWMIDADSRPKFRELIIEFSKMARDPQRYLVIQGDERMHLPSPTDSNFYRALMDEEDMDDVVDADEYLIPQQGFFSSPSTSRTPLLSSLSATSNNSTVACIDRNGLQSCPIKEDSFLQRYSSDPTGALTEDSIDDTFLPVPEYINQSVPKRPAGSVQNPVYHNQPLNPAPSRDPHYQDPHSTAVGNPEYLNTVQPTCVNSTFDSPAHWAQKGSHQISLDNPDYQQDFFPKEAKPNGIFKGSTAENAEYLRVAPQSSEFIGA

In order of falling “Biochem EGFR % Inhibition (P.167)” value:
1. O=C1Nc2ccc(CCCl)cc2C1=Cc1cccc(C(F)(F)F)c1 [10735/G05]  16.7%
2. Cc1c(Br)ccc2c1C(=Cc1cccc(C(F)(F)F)c1)C(=O)N2 [10735/C05]  14.5%
3. Cc1c(Br)ccc2c1C(=Cc1ccc(F)c(F)c1)C(=O)N2 [10735/C03]  8.0%
